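Cells were grown in 96-well plates and exposed to each compound for 48 hours at five concentrations; endpoints were interpolated linearly between bracketing concentrations, or set to the highest concentration if not reached. TGI: total growth inhibition.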
What was measured:
Assay in all cases: inhibition of tumour cell growth, NCI panel, 48 h
HCT-116 colon = test system: HCT-116 colon
HT29 colon = test system: HT29 colon
SR leukemia = test system: SR leukemia
DMS 114 small cell lung = test system: DMS 114 small cell lung
DLD-1 colon = test system: DLD-1 colon
UO-31 renal = test system: UO-31 renal
HCC-2998 colon = test system: HCC-2998 colon
OVCAR-4 ovarian = test system: OVCAR-4 ovarian
KM20L2 colon = test system: KM20L2 colon
SW-620 colon = test system: SW-620 colon
OVCAR-8 ovarian = test system: OVCAR-8 ovarian
LOX IMVI melanoma = test system: LOX IMVI melanoma
SF-539 CNS = test system: SF-539 CNS
NCI-H23 lung = test system: NCI-H23 lung
OVCAR-5 ovarian = test system: OVCAR-5 ovarian
NCI-H460 lung = test system: NCI-H460 lung
SNB-19 CNS = test system: SNB-19 CNS
K-562 leukemia = test system: K-562 leukemia
SF-268 CNS = test system: SF-268 CNS
SNB-75 CNS = test system: SNB-75 CNS
M14 melanoma = test system: M14 melanoma
HOP-62 NSCLC = test system: HOP-62 NSCLC
M19-MEL melanoma = test system: M19-MEL melanoma
EKVX NSCLC = test system: EKVX NSCLC
UACC-257 melanoma = test system: UACC-257 melanoma
SK-MEL-28 melanoma = test system: SK-MEL-28 melanoma
SK-OV-3 ovarian = test system: SK-OV-3 ovarian
IGROV1 ovarian = test system: IGROV1 ovarian
CCRF-CEM leukemia = test system: CCRF-CEM leukemia
SN12C renal = test system: SN12C renal
COLO 205 colon = test system: COLO 205 colon
U251 CNS = test system: U251 CNS
SK-MEL-5 melanoma = test system: SK-MEL-5 melanoma
LXFL 529 NSCLC = test system: LXFL 529 NSCLC
RPMI-8226 leukemia = test system: RPMI-8226 leukemia
ACHN renal = test system: ACHN renal
SNB-78 CNS = test system: SNB-78 CNS
TK-10 renal = test system: TK-10 renal
UACC-62 melanoma = test system: UACC-62 melanoma
RXF 393 renal = test system: RXF 393 renal
HCT-15 colon = test system: HCT-15 colon
DMS 273 small cell lung = test system: DMS 273 small cell lung
MOLT-4 leukemia = test system: MOLT-4 leukemia
A549 NSCLC = test system: A549 NSCLC
NCI-H226 lung = test system: NCI-H226 lung
HL-60(TB) leukemia = test system: HL-60(TB) leukemia
SF-295 CNS = test system: SF-295 CNS
HS 578T breast = test system: HS 578T breast
BT-549 breast = test system: BT-549 breast
MDA-N = test system: MDA-N
T-47D breast = test system: T-47D breast
MCF7 breast = test system: MCF7 breast
MALME-3M melanoma = test system: MALME-3M melanoma
SK-MEL-2 melanoma = test system: SK-MEL-2 melanoma
NCI/ADR-RES ovarian = test system: NCI/ADR-RES ovarian
A498 renal = test system: A498 renal
MDA-MB-435 = test system: MDA-MB-435
PC-3 prostate = test system: PC-3 prostate
786-0 renal = test system: 786-0 renal
KM12 colon = test system: KM12 colon
OVCAR-3 ovarian = test system: OVCAR-3 ovarian
MDA-MB-231 breast = test system: MDA-MB-231 breast
CAKI-1 renal = test system: CAKI-1 renal
HOP-92 NSCLC = test system: HOP-92 NSCLC
NCI-H522 lung = test system: NCI-H522 lung
DU-145 prostate = test system: DU-145 prostate

Cc1cccc2c1Sc1ccccc1C2NC(=O)CCN(C)C (stereo not given) gave a TGI (HCT-116 colon) greater than 100 µM, a TGI (HT29 colon) greater than 100 µM and a TGI (SR leukemia) greater than 100 µM. It also gave a TGI (DMS 114 small cell lung) greater than 100 µM, a TGI (DLD-1 colon) greater than 100 µM and a TGI (UO-31 renal) greater than 100 µM. For the same molecule, the TGI (HCC-2998 colon) was greater than 100 µM, the TGI (OVCAR-4 ovarian) was greater than 100 µM and the TGI (KM20L2 colon) was greater than 100 µM. For the same molecule, the TGI (SW-620 colon) was greater than 100 µM, the TGI (OVCAR-8 ovarian) was greater than 100 µM and the TGI (LOX IMVI melanoma) was greater than 100 µM. The TGI (SF-539 CNS) was greater than 100 µM, the TGI (NCI-H23 lung) was greater than 100 µM and the TGI (OVCAR-5 ovarian) was greater than 100 µM. For the same molecule, the TGI (NCI-H460 lung) was greater than 100 µM, the TGI (SNB-19 CNS) was greater than 100 µM and the TGI (K-562 leukemia) was greater than 100 µM. For the same molecule, the TGI (SF-268 CNS) was greater than 100 µM, the TGI (SNB-75 CNS) was greater than 100 µM and the TGI (M14 melanoma) was greater than 100 µM. The TGI (HOP-62 NSCLC) was greater than 100 µM, the TGI (M19-MEL melanoma) was greater than 100 µM and the TGI (EKVX NSCLC) was greater than 100 µM. It also gave a TGI (UACC-257 melanoma) greater than 100 µM, a TGI (SK-MEL-28 melanoma) greater than 100 µM and a TGI (SK-OV-3 ovarian) greater than 100 µM. For the same molecule, the TGI (IGROV1 ovarian) was greater than 100 µM, the TGI (CCRF-CEM leukemia) was greater than 100 µM and the TGI (SN12C renal) was greater than 100 µM. The TGI (COLO 205 colon) was greater than 100 µM, the TGI (U251 CNS) was greater than 100 µM and the TGI (SK-MEL-5 melanoma) was greater than 100 µM. The TGI (LXFL 529 NSCLC) was greater than 100 µM, the TGI (RPMI-8226 leukemia) was greater than 100 µM and the TGI (ACHN renal) was greater than 100 µM. It also gave a TGI (SNB-78 CNS) greater than 100 µM, a TGI (TK-10 renal) greater than 100 µM and a TGI (UACC-62 melanoma) greater than 100 µM. It also gave a TGI (RXF 393 renal) greater than 100 µM, a TGI (HCT-15 colon) greater than 100 µM and a TGI (DMS 273 small cell lung) greater than 100 µM. The TGI (MOLT-4 leukemia) was greater than 100 µM, the TGI (A549 NSCLC) was greater than 100 µM and the TGI (NCI-H226 lung) was greater than 100 µM. It also gave a TGI (HL-60(TB) leukemia) greater than 100 µM.
Molecule C=C1C(=O)OC2CC(C)C(C(O)CC(C)O)=CCC12 (stereo not given) has a TGI (SF-295 CNS) greater than 100 µM, a TGI (HCT-116 colon) of 21.9 µM and a TGI (HT29 colon) of 35.7 µM. The TGI (SR leukemia) was 29.5 µM, the TGI (HS 578T breast) was 62 µM and the TGI (UO-31 renal) was 30.7 µM. It also gave a TGI (HCC-2998 colon) of 33.2 µM, a TGI (OVCAR-4 ovarian) of 42.2 µM and a TGI (SW-620 colon) of 37.6 µM. The TGI (OVCAR-8 ovarian) was 43.8 µM, the TGI (LOX IMVI melanoma) was 25.7 µM and the TGI (SF-539 CNS) was 31.3 µM. The TGI (BT-549 breast) was 30.2 µM, the TGI (MDA-N) was 42.3 µM and the TGI (NCI-H23 lung) was 33.3 µM. It also gave a TGI (OVCAR-5 ovarian) of 30.7 µM, a TGI (NCI-H460 lung) of 46.6 µM and a TGI (T-47D breast) of 23.6 µM. It also gave a TGI (SNB-19 CNS) greater than 100 µM, a TGI (K-562 leukemia) of 37.1 µM and a TGI (MCF7 breast) of 28.1 µM. The TGI (SF-268 CNS) was 36.4 µM, the TGI (SNB-75 CNS) was 47.2 µM and the TGI (MALME-3M melanoma) was 21.9 µM. For the same molecule, the TGI (M14 melanoma) was 35 µM, the TGI (HOP-62 NSCLC) was greater than 74.3 µM and the TGI (SK-MEL-2 melanoma) was 38.5 µM. It also gave a TGI (EKVX NSCLC) of 28.6 µM, a TGI (NCI/ADR-RES ovarian) of 41 µM and a TGI (A498 renal) of 32.1 µM. The TGI (UACC-257 melanoma) was 29.8 µM, the TGI (SK-MEL-28 melanoma) was 23.1 µM and the TGI (SK-OV-3 ovarian) was greater than 100 µM. The TGI (MDA-MB-435) was greater than 59.2 µM, the TGI (IGROV1 ovarian) was 43.4 µM and the TGI (PC-3 prostate) was 57 µM. It also gave a TGI (CCRF-CEM leukemia) of 14.3 µM, a TGI (SN12C renal) of 33.1 µM and a TGI (786-0 renal) of 30.2 µM. For the same molecule, the TGI (COLO 205 colon) was 24.6 µM, the TGI (KM12 colon) was 46.4 µM and the TGI (U251 CNS) was 39.4 µM. For the same molecule, the TGI (SK-MEL-5 melanoma) was 41.2 µM, the TGI (OVCAR-3 ovarian) was 25.2 µM and the TGI (RPMI-8226 leukemia) was 34.2 µM. The TGI (ACHN renal) was 8.95 µM, the TGI (TK-10 renal) was 23.3 µM and the TGI (MDA-MB-231 breast) was 33.8 µM. The TGI (UACC-62 melanoma) was 44.2 µM, the TGI (RXF 393 renal) was 30.5 µM and the TGI (HCT-15 colon) was 41.4 µM. The TGI (CAKI-1 renal) was 9.26 µM, the TGI (HOP-92 NSCLC) was 27.8 µM and the TGI (MOLT-4 leukemia) was 32.6 µM. It also gave a TGI (A549 NSCLC) greater than 80.6 µM, a TGI (NCI-H226 lung) of 72.7 µM and a TGI (HL-60(TB) leukemia) of 13.5 µM. It also gave a TGI (NCI-H522 lung) of 3.29 µM and a TGI (DU-145 prostate) of 30.4 µM.

From PubChem BioAssay (NCI)
